{
  "source": "patent US20210156844A1",
  "about": "“TMEM16A Modulation for Diagnostic or Therapeutic Use in Pulmonary Hypertension (PH)” (Bayer Aktiengesellschaft, priority 2017, published 2021)",
  "tested_on": "human PASMC",
  "assay": "PASMC proliferation in vitro, [3H]-thymidine incorporation",
  "assay_type": "cell-based",
  "conditions": "benzbromarone 30 μM; PDGF-BB 10 ng/ml; human donor PASMC",
  "description": "Human PASMC were seeded on 96-well plates. Cells were serum-starved for 12 hours, then underwent a 30 min pre-treatment with benzbromarone (30 μM) or vehicle. After the pre-treatment, serum-free SMC Medium containing PDGF-BB (10 ng/ml, Sigma) and benzbromarone was applied. The proliferation was determined by [^3H]-thymidine incorporation (BIOTREND Chemikalien GmbH, Cologne, Germany) as an index of DNA synthesis, and detected with a scintillation counter (Wallac 1450 MicroBeta TriLux Liquid Scintillation Counter & Luminometer, PerkinElmer, Waltham Mass., USA). Each independent experiment was performed in five replicates using PASMC isolated from six different donor lungs.\nIn experiments using TMEM16A silencing, cells were first seeded on 6-well plates and transfected with TMEM16A siRNA or control non-silencing RNA as described above. Cells were re-seeded into 96-well plates 24 hours after transfection, starved for 12 hours, then the induction and measurement of proliferation was performed as detailed above.",
  "data": [
    {"smiles": "CCc1oc2ccccc2c1C(=O)c1cc(Br)c(O)c(Br)c1", "note": "[benzbromarone, (2-Ethyl-3-benzofuranyl)-(3,5-dibrom-4-hydroxyphenyl)ketone]", "values": [
      {"measurement": "PDGF-BB induced PASMC proliferation", "result": "decrease"}
    ]}
  ]
}
